Among the data in patent US12655175B2, “C17, C20, and C21 substituted neuroactive steroids and their methods of use” (Sage Therapeutics, LLC, priority 2016, dated 2026) are IC50 values, retold here.

The assay has as its target GABAA receptor. Briefly: Steroid inhibition of [35S]-TBPS binding. The following applies: rat brain cortical membranes, 3 nM [35S]-TBPS, in the presence of 5 mM GABA. Here is the method:
Steroid Inhibition of TBPS Binding
Briefly, cortices are rapidly removed following decapitation of carbon dioxide-anesthetized Sprague-Dawley rats ([…]). The cortices are homogenized in 10 volumes of ice-cold 0.32 M sucrose using a glass/teflon homogenizer and centrifuged at 1500×g for 10 min at 4° C. The resultant supernatants are centrifuged at 10,000×g for 20 min at 4° C. to obtain the P2 pellets. The P2 pellets are resuspended in 200 mM NaCl/50 mM Na—K phosphate pH 7.4 buffer and centrifuged at 10,000×g for 10 min at 4° C. This washing procedure is repeated twice and the pellets are resuspended in 10 volumes of buffer. Aliquots ([…]) of the membrane suspensions are incubated with 3 nM [^35S]-TBPS and […] aliquots of test drug dissolved in dimethyl sulfoxide (DMSO) (final 0.5%) in the presence of 5 mM GABA. The incubation is brought to a final volume of 1.0 mL with buffer. […] Following a 90 min incubation at room temp, the assays are terminated by filtration through glass fiber filters (Schleicher and Schuell No. 32) using a cell harvester (Brandel) and rinsed three times with ice-cold buffer. Filter bound radioactivity is measured by liquid scintillation spectrometry. Non-linear curve fitting of the overall data for each drug averaged for each concentration is done using Prism (GraphPad).
Various compounds are or can be screened to determine their potential as modulators of [^35S]-TBPS binding in vitro. These assays are or can be performed in accordance with the above discussed procedures.

Molecules are shown by their SMILES. Some results are limits rather than exact numbers.

One may read the IC50 as the concentration that gives 50% inhibition.

Regarding `CN(CC(=O)[C@H]1CC[C@H]2[C@@H]3CC[C@@H]4C[C@](C)(O)CC[C@@H]4[C@H]3CC[C@]12C)c1ccc(F)cc1` [Compound 43], the IC50 was in the range of 10 to 50 nM. To `CCOC[C@@]1(O)CC[C@H]2[C@H](CC[C@@H]3[C@@H]2CC[C@]2(C)[C@@H](C(=O)N4CCc5ccccc5C4)CC[C@@H]32)C1` [Compound 44] belongs 50 to 100 nM. Next, `CCOC[C@@]1(O)CC[C@H]2[C@H](CC[C@@H]3[C@@H]2CC[C@]2(C)[C@@H](C(=O)N[C@H](C)c4ccc(C#N)cc4)CC[C@@H]32)C1` [Compound 48]: 100 to 500 nM; `CCOC[C@@]1(O)CC[C@H]2[C@H](CC[C@@H]3[C@@H]2CC[C@]2(C)[C@@H](C(=O)N(C)[C@H](C)c4ccc(C#N)cc4)CC[C@@H]32)C1` [Compound 49]: 50 to 100 nM. As for `CCOC[C@@]1(O)CC[C@H]2[C@H](CC[C@@H]3[C@@H]2CC[C@]2(C)[C@@H](C(=O)N4CCCCC4)CC[C@@H]32)C1` [Compound 50], the IC50 is 100 to 500 nM. Next, `CCOC[C@@]1(O)CC[C@H]2[C@H](CC[C@@H]3[C@@H]2CC[C@]2(C)[C@@H](C(=O)N4CCC[C@H]4c4ncco4)CC[C@@H]32)C1` [Compound 55]: above 500 nM. As to `CCOC[C@@]1(O)CC[C@H]2[C@H](CC[C@@H]3[C@@H]2CC[C@]2(C)[C@@H](C(=O)N(C)[C@H](CC)c4ccc(F)cc4)CC[C@@H]32)C1` [Compound 56], the half-inhibitory concentration (IC50) lay within 100 to 500 nM. With `CCOC[C@@]1(O)CC[C@H]2[C@H](CC[C@@H]3[C@@H]2CC[C@]2(C)[C@@H](C(=O)N(C)[C@@H](CC)c4ccc(F)cc4)CC[C@@H]32)C1` [Compound 57], the IC50 was 100 to 500 nM. For `CCOC[C@@]1(O)CC[C@H]2[C@H](CC[C@@H]3[C@@H]2CC[C@]2(C)[C@@H](C(=O)N[C@H](CC)c4ccc(F)cc4)CC[C@@H]32)C1` [Compound 58], the half-maximal inhibitory concentration (IC50) was above 500 nM.

For the compound `CCOC[C@@]1(O)CC[C@H]2[C@H](CC[C@@H]3[C@@H]2CC[C@]2(C)[C@@H](C(=O)N4CCC[C@@H]4c4ncco4)CC[C@@H]32)C1` [Compound 60], the IC50 is above 500 nM. To `CCOC[C@@]1(O)CC[C@H]2[C@H](CC[C@@H]3[C@@H]2CC[C@]2(C)[C@@H](C(=O)N(C)[C@H](C)c4ccc(F)cc4)CC[C@@H]32)C1` [Compound 61] belongs 100 to 500 nM.

As to `CN(CC(=O)[C@H]1CC[C@H]2[C@@H]3CC[C@H]4C[C@](C)(O)CC[C@@H]4[C@H]3CC[C@]12C)c1ccccc1` [Compound 63], the IC50 was in the range of 100 to 500 nM.

Consider `C[C@@]1(O)CC[C@H]2[C@@H](CC[C@@H]3[C@@H]2CC[C@]2(C)[C@@H](C(=O)CNc4ccccc4)CC[C@@H]32)C1` [Compound 64], for which the IC50 was in the range of 50 to 100 nM. Turning to `CCOC[C@]12CC[C@@](C)(O)C[C@@H]1CC[C@H]1[C@@H]3CC[C@H](C(=O)CN(C)c4ccccc4)[C@@]3(C)CC[C@@H]12` [Compound 65], the IC50 lay in the range of 100 to 500 nM. For `CCOC[C@]12CC[C@@](C)(O)C[C@@H]1CC[C@H]1[C@@H]3CC[C@H](C(=O)CNc4ccccc4)[C@@]3(C)CC[C@@H]12` [Compound 66], the IC50 fell in the range of 50 to 100 nM. To `C[C@H](c1ccc(C#N)cc1)N(C)C(=O)[C@H]1CC[C@H]2[C@@H]3CC[C@@H]4C[C@@](O)(C(F)(F)F)CC[C@@H]4[C@H]3CC[C@]12C` [Compound 69] belongs 100 to 500 nM; to `C[C@@H](c1ccc(C#N)cc1)N(C)C(=O)[C@H]1CC[C@H]2[C@@H]3CC[C@@H]4C[C@@](O)(C(F)(F)F)CC[C@@H]4[C@H]3CC[C@]12C` [Compound 70], 100 to 500 nM. On to `C[C@]12CC[C@](O)(C(F)(F)F)C[C@@H]1CC[C@@H]1[C@@H]2CC[C@]2(C)[C@@H](C(=O)CNc3ccccc3)CC[C@@H]12` [Compound 73], for which the IC50 is 50 to 100 nM. Regarding `CN(CC(=O)[C@H]1CC[C@H]2[C@@H]3CC[C@H]4C[C@@](O)(C(F)(F)F)CC[C@]4(C)[C@H]3CC[C@]12C)c1ccccc1` [Compound 74], the IC50 was above 500 nM.

As for `COC[C@]12CC[C@@](C)(O)C[C@H]1CC[C@H]1[C@@H]3CC[C@H](C(=O)CN(C)c4ccccc4)[C@@]3(C)CC[C@@H]12` [Compound 75], the IC50 lay in the range of 10 to 50 nM. To `COC[C@]12CC[C@@](C)(O)C[C@H]1CC[C@H]1[C@@H]3CC[C@H](C(=O)CNc4ccccc4)[C@@]3(C)CC[C@@H]12` [Compound 76] belongs below 10 nM; to `COC[C@]12CC[C@](O)(C(F)(F)F)C[C@H]1CC[C@H]1[C@@H]3CC[C@H](C(=O)CNc4ccccc4)[C@@]3(C)CC[C@@H]12` [Compound 77], 10 to 50 nM; to `COC[C@]12CC[C@](O)(C(F)(F)F)C[C@H]1CC[C@H]1[C@@H]3CC[C@H](C(=O)Nc4ccccc4)[C@@]3(C)CC[C@@H]12` [Compound 78], 50 to 100 nM. On to `COC[C@]12CC[C@](O)(C(F)(F)F)C[C@H]1CC[C@H]1[C@@H]3CC[C@H](C(=O)N(C)Cc4ccccc4)[C@@]3(C)CC[C@@H]12` [Compound 79], for which the IC50 lay within 100 to 500 nM.

`COC[C@]12CC[C@](O)(C(F)(F)F)C[C@H]1CC[C@H]1[C@@H]3CC[C@H](C(=O)NC4CCCCC4)[C@@]3(C)CC[C@@H]12` [Compound 80]: the IC50 is above 500 nM.

As to `CCOC[C@@]1(O)CC[C@H]2[C@H](CC[C@@H]3[C@@H]2CC[C@]2(C)[C@@H](C(=O)CN(C)c4ccccc4)CC[C@@H]32)C1` [Compound 83], the IC50 lay in the range of 100 to 500 nM.

Regarding `CCOC[C@@]1(O)CC[C@H]2[C@H](CC[C@@H]3[C@@H]2CC[C@]2(C)[C@@H](C(=O)CNc4ccccc4)CC[C@@H]32)C1` [Compound 84], the IC50 was 10 to 50 nM. To `CCOC[C@@]1(O)CC[C@H]2[C@@H](CC[C@@H]3[C@@H]2CC[C@]2(C)[C@@H](C(=O)CN(C)c4ccccc4)CC[C@@H]32)C1` [Compound 85] belongs above 500 nM; to `CCOC[C@@]1(O)CC[C@H]2[C@@H](CC[C@@H]3[C@@H]2CC[C@]2(C)[C@@H](C(=O)CNc4ccccc4)CC[C@@H]32)C1` [Compound 86], 100 to 500 nM; to `C[C@@]1(O)CC[C@@]2(C)[C@@H](CC[C@@H]3[C@@H]2CC[C@]2(C)[C@@H](Nc4ccccc4)CC[C@@H]32)C1` [Compound 87], 100 to 500 nM. As for `CN(c1ccccc1)[C@H]1CC[C@H]2[C@@H]3CC[C@H]4C[C@](C)(O)CC[C@]4(C)[C@H]3CC[C@]12C` [Compound 88], the concentration for half-maximal inhibition (IC50) is above 500 nM. Consider `C[C@@]1(O)CC[C@@]2(C)[C@@H](CC[C@@H]3[C@@H]2CC[C@]2(C)[C@@H](Nc4ccc(F)cc4)CC[C@@H]32)C1` [Compound 89], for which the IC50 was in the range of 100 to 500 nM.

In the case of `C[C@@]1(O)CC[C@@]2(C)[C@@H](CC[C@@H]3[C@@H]2CC[C@]2(C)[C@@H](Nc4cccc(F)c4)CC[C@@H]32)C1` [Compound 90], the IC50 fell in the range of 100 to 500 nM. For the compound `C[C@@]1(O)CC[C@@]2(C)[C@@H](CC[C@@H]3[C@@H]2CC[C@]2(C)[C@@H](Nc4ccccc4F)CC[C@@H]32)C1` [Compound 91], the 50% inhibitory concentration (IC50) was above 500 nM. As to `C[C@@]1(O)CC[C@@]2(C)[C@@H](CC[C@@H]3[C@@H]2CC[C@]2(C)[C@@H](NCc4ccccc4)CC[C@@H]32)C1` [Compound 92], the concentration for half-maximal inhibition (IC50) was above 500 nM.

As for `C[C@@]1(O)CC[C@@]2(C)[C@@H](CC[C@@H]3[C@@H]2CC[C@]2(C)[C@@H](N)CC[C@@H]32)C1` [Compound 93], the IC50 was above 500 nM. As for `C[C@@]1(O)CC[C@@]2(C)[C@@H](CC[C@@H]3[C@@H]2CC[C@]2(C)[C@@H](NC(=O)c4ccccc4)CC[C@@H]32)C1` [Compound 94], the half-maximal inhibitory concentration (IC50) is above 500 nM. Take `CC(=O)N[C@H]1CC[C@H]2[C@@H]3CC[C@H]4C[C@](C)(O)CC[C@]4(C)[C@H]3CC[C@]12C` [Compound 95]: the IC50 was above 500 nM. Regarding `CN([C@H]1CC[C@H]2[C@@H]3CC[C@H]4C[C@](C)(O)CC[C@]4(C)[C@H]3CC[C@]12C)S(=O)(=O)c1ccccc1` [Compound 96], the IC50 was above 500 nM. Turning to `C[C@@]1(O)CC[C@@]2(C)[C@@H](CC[C@@H]3[C@@H]2CC[C@]2(C)[C@@H](NS(C)(=O)=O)CC[C@@H]32)C1` [Compound 97], the IC50 was above 500 nM. On to `CN([C@H]1CC[C@H]2[C@@H]3CC[C@H]4C[C@](C)(O)CC[C@]4(C)[C@H]3CC[C@]12C)S(C)(=O)=O` [Compound 98], for which the IC50 was above 500 nM.

As for `COC(=O)N(C)[C@H]1CC[C@H]2[C@@H]3CC[C@H]4C[C@](C)(O)CC[C@]4(C)[C@H]3CC[C@]12C` [Compound 99], the IC50 is above 500 nM.
